According to publication PMC9813109, “Phase I dose-escalation study of milademetan in patients with relapsed or refractory acute myeloid leukemia” (International Journal of Hematology, 2022):
“Also recorded” adds a separate entry of the source. Like-named read-outs stand apart in the source and are kept apart here.

Tests used:
Platelet = system: Platelet; set-up: species or system human; details: in vivo
Excerpt: Patients were followed up until the AEs resolved.

[1] = Plasma pharmacokinetics (validated HPLC/MS, noncompartmental analysis); assay type: in vivo, human; details: for Cmax / AUC(0-t) / Tmax / half-life / AUC(0-inf): human, plasma, oral
Procedure: Milademetan concentrations were determined using a validated HPLC/MS method. The lower limit of quantification was 0.500 ng/mL. Noncompartmental analysis was used to calculate the PK parameters from milademetan plasma concentrations. In addition, the Phoenix WinNonlin 8.1 software (Certara, Princeton, NJ, USA) was used for PK analysis. In addition to descriptive statistics, the geometric mean and geometric coefficient of variation were used to describe the PK parameters. All analyses were conducted using SAS® software (version 9.4; SAS Institute Inc., Cary, NC, USA). The time courses of mean plasma milademetan concentrations on days 1 and 14 of cycle 1 (linear scale) in the QD 14/28-day schedule were used for pharmacokinetic analysis. The best response was measured as CR, CRh, CRi, or PR. For efficacy analysis, a waterfall plot of the best percent change from baseline blast count in bone marrow aspirate on the QD 14/28-day schedule was drawn to assess the blast count reduction. In addition, line plots of individual serum MIC-1 levels were drawn in the QD 14/28-day schedule for the pharmacodynamics analysis set.

[2] = system: R/R AML (blast count in bone marrow aspirate); assay: Efficacy assessment: best response and bone marrow blast count; assay type: in vivo, human; details: for Best response: Not applicable: SD < 3 months was deemed not applicable
Excerpt: Bone marrow and peripheral blood results were used to assess the antitumor effect of milademetan. AML response criteria were defined as shown in Supplementary Table 1. A morphologic leukemia-free state (MLFS) was defined as bone marrow blasts < 5% in the absence of blasts with Auer rods and the absence of extramedullary leukemia. The presence/absence of hematological recovery or blood transfusion was not considered. Stable disease (SD) was defined as an absence of CR, CR with incomplete hematologic recovery (CRi) or partial hematologic recovery (CRh), partial remission (PR), or MLFS, provided that the criteria for the progressive disease were not met. SD had to last at least 3 months (assessed as SD more than thrice in a row) after initiating milademetan treatment. SD < 3 months was deemed not applicable. The best-measured response was defined as the best overall response (all time points after the start of study treatment until the end of treatment). The composite CR (CRc) duration was defined as the time between when the criteria for […] first met and when a relapse was first confirmed. In addition to descriptive statistics, the geometric mean and geometric coefficient of variation were used to describe the PK parameters. All analyses were conducted using SAS® software (version 9.4; SAS Institute Inc., Cary, NC, USA). The time courses of mean plasma milademetan concentrations on days 1 and 14 of cycle 1 (linear scale) in the QD 14/28-day schedule were used for pharmacokinetic analysis. The best response was measured as CR, CRh, CRi, or PR. For efficacy analysis, a waterfall plot of the best percent change from baseline blast count in bone marrow aspirate on the QD 14/28-day schedule was drawn to assess the blast count reduction. In addition, line plots of individual serum MIC-1 levels were drawn in the QD 14/28-day schedule for the pharmacodynamics analysis set.

[3] = system: patients with solid tumors or lymphomas; details: QD 21/28-day schedule, Japanese phase I; cited from earlier work

With `CC1(C)CCC2(CC1)N[C@@H](C(=O)N[C@@H]1CC[C@@H](C(N)=O)OC1)[C@H](c1ccnc(Cl)c1F)[C@]21C(=O)Nc2cc(Cl)ccc21` [milademetan] the “Mean platelet count vs baseline” value (Platelet) was “decreased from the baseline in all cohorts”, the AUCinf ([1]; Day 1 of cycle 1, 90 mg/day, mean (SD), two patients excluded) was 13,700 (4,100) ng h/mL and the “Mean accumulation ratios based on AUC24h” value ([1]; Day 14, dose range tested (90-160 mg)) was 1.40–1.90. The Ctrough ([1]; Day 14 of cycle 1, 90 mg/day, mean (SD)) was 422 (147) ng/mL, the Ctrough ([1]; Day 14 of cycle 1, 120 mg/day, mean (SD)) was 635 (533) ng/mL and the Ctrough ([1]; Day 14 of cycle 1, 160 mg/day, mean (SD)) was 769 (221) ng/mL. The “Increase in Cmax and AUC with dose” value ([1]; dose range tested, single and multiple dosing) was “increased linearly with milademetan dose; also recorded: linear and dose-proportional”, the Cmax ([1]; 90 mg/day, Day 1 of cycle 1, 90 mg/day, mean (SD)) was 653 ng/mL and the AUC(0-t) ([1]; 90 mg/day, Day 1 of cycle 1, 90 mg/day, mean (SD), two patients excluded, read-out: AUC24h) was 8640 ng·h/mL. It also gave an AUC(0-t) ([1]; 90 mg/day, Day 1 of cycle 1, 90 mg/day, mean (SD), read-out: AUC8h) of 3170 ng·h/mL, an AUC(0-t) ([1]; 90 mg/day, Day 1 of cycle 1, 90 mg/day, mean (SD), read-out: AUClast) of 8060 ng·h/mL and a Tmax ([1]; 90 mg/day, Day 1 of cycle 1, 90 mg/day, median (minimum, maximum), read-out: Tmax) of 4.45 h. It also gave a Cmax ([1]; 90 mg/day, Day 14 of cycle 1, 90 mg/day, mean (SD)) of 1090 ng/mL, an AUC(0-t) ([1]; 90 mg/day, Day 14 of cycle 1, 90 mg/day, mean (SD), read-out: AUC8h) of 6220 ng·h/mL and a Tmax ([1]; 90 mg/day, Day 14 of cycle 1, 90 mg/day, median (minimum, maximum), read-out: Tmax) of 3.02 h. It also gave a Cmax ([1]; 120 mg/day, Day 1 of cycle 1, 120 mg/day, mean (SD)) of 1010 ng/mL, an AUC(0-t) ([1]; 120 mg/day, Day 1 of cycle 1, 120 mg/day, mean (SD), one patient excluded, read-out: AUC24h) of 12100 ng·h/mL and an AUC(0-t) ([1]; 120 mg/day, Day 1 of cycle 1, 120 mg/day, mean (SD), read-out: AUC8h) of 4940 ng·h/mL. The AUC(0-t) ([1]; 120 mg/day, Day 1 of cycle 1, 120 mg/day, mean (SD), read-out: AUClast) was 11300 ng·h/mL, the Tmax ([1]; 120 mg/day, Day 1 of cycle 1, 120 mg/day, median (minimum, maximum), read-out: Tmax) was 3.13 h and the Cmax ([1]; 120 mg/day, Day 14 of cycle 1, 120 mg/day, mean (SD)) was 1680 ng/mL. It also gave an AUC(0-t) ([1]; 120 mg/day, Day 14 of cycle 1, 120 mg/day, mean (SD), read-out: AUC8h) of 10000 ng·h/mL, a Tmax ([1]; 120 mg/day, Day 14 of cycle 1, 120 mg/day, median (minimum, maximum), read-out: Tmax) of 2.98 h and a Cmax ([1]; 160 mg/day, Day 1 of cycle 1, 160 mg/day, mean (SD)) of 1380 ng/mL. It also gave an AUC(0-t) ([1]; 160 mg/day, Day 1 of cycle 1, 160 mg/day, mean (SD), two patients excluded, read-out: AUC24h) of 15000 ng·h/mL, an AUC(0-t) ([1]; 160 mg/day, Day 1 of cycle 1, 160 mg/day, mean (SD), read-out: AUC8h) of 6560 ng·h/mL and an AUC(0-t) ([1]; 160 mg/day, Day 1 of cycle 1, 160 mg/day, mean (SD), read-out: AUClast) of 14900 ng·h/mL. It also gave a Tmax ([1]; 160 mg/day, Day 1 of cycle 1, 160 mg/day, median (minimum, maximum), read-out: Tmax) of 2.54 h, a Cmax ([1]; 160 mg/day, Day 14 of cycle 1, 160 mg/day, mean (SD)) of 2710 ng/mL and an AUC(0-t) ([1]; 160 mg/day, Day 14 of cycle 1, 160 mg/day, mean (SD), read-out: AUC8h) of 15300 ng·h/mL. It also gave a Tmax ([1]; 160 mg/day, Day 14 of cycle 1, 160 mg/day, median (minimum, maximum), read-out: Tmax) of 3.03 h, a half-life ([1]; Day 1 of cycle 1, 90 mg/day, mean (SD), two patients excluded, read-out: t1/2 (converted)) of 15.9 h and an AUC(0-inf) ([1]; Day 1 of cycle 1, 120 mg/day, mean (SD), one patient excluded) of 18600 ng·h/mL. The half-life ([1]; Day 1 of cycle 1, 120 mg/day, mean (SD), one patient excluded, read-out: t1/2 (converted)) was 14.1 h, the AUC(0-inf) ([1]; Day 1 of cycle 1, 160 mg/day, mean (SD), two patients excluded) was 22700 ng·h/mL and the half-life ([1]; Day 1 of cycle 1, 160 mg/day, mean (SD), two patients excluded, read-out: t1/2 (converted)) was 14.6 h. The half-life ([1]; across doses, read-out: Mean half-life (converted)) was about 15 h, the Tmax ([1]; across doses, read-out: Median Tmax) was 3 to 4 h and the “Best response: Morphologic leukemia-free state” value ([2]; 90 mg/day (n = 4)) was 0 (0.0) n, %. For the same molecule, the “Best response: Progressive disease” value ([2]; 90 mg/day (n = 4)) was 1 (25.0) n, %, the “Best response: Stable disease” value ([2]; 90 mg/day (n = 4)) was 1 (25.0) n, % and the “Best response: Not applicable” value ([2]; 90 mg/day (n = 4)) was 2 (50.0) n, %. The “Best response: Morphologic leukemia-free state” value ([2]; 120 mg/day (n = 5)) was 1 (20.0) n, %, the “Best response: Progressive disease” value ([2]; 120 mg/day (n = 5)) was 1 (20.0) n, % and the “Best response: Stable disease” value ([2]; 120 mg/day (n = 5)) was 0 (0.0) n, %. The “Best response: Not applicable” value ([2]; 120 mg/day (n = 5)) was 3 (60.0) n, %, the “Best response: Morphologic leukemia-free state” value ([2]; 160 mg/day (n = 3)) was 1 (33.3) n, % and the “Best response: Progressive disease” value ([2]; 160 mg/day (n = 3)) was 0 (0.0) n, %. The “Best response: Stable disease” value ([2]; 160 mg/day (n = 3)) was 0 (0.0) n, %, the “Best response: Not applicable” value ([2]; 160 mg/day (n = 3)) was 2 (66.7) n, % and the “Patients with a ≥ 50% reduction in baseline blast count in the bone marrow aspirate” value ([2]; 12 patients) was 33.3%. For the same molecule, the “CR, CRh, CRi, or PR” value ([2]; 12 patients, 90, 120 or 160 mg) was “None of the patients”, the “MLFS, patients” value ([2]; 12 patients, TP53 wild at baseline) was 16.7% and the “Best response: Morphologic leukemia-free state” value ([2]; Total (n = 12)) was 2 (16.7) n, %. For the same molecule, the “Best response: Progressive disease” value ([2]; Total (n = 12)) was 2 (16.7) n, %, the “Best response: Stable disease” value ([2]; Total (n = 12)) was 1 (8.3) n, % and the “Best response: Not applicable” value ([2]; Total (n = 12)) was 7 (58.3) n, %. The “Maximum tolerated dose (MTD)” value [3] was 90 mg.
